In brackets after ≈: the same amount, converted by molar mass.
What was measured:
HeLa = assay: In vitro cytotoxicity against human cervical carcinoma (Hela) cells at dose 50 ug/mL; format: functional, cell-based
KB = assay: In vitro cytotoxicity against human oral epidermoid carcinoma (KB) cells; format: functional, cell-based
COLO 205 = assay: In vitro cytotoxicity against human colon carcinoma (Colon-205) cells; format: functional, cell-based
HEp-2 = assay: In vitro cytotoxicity against human larynx carcinoma (Hep-2); format: functional, cell-based
Nucleic Acid = assay: Evaluated for binding affinity with DNA at a pH of 8 by Fluorimetric method; format: nucleic-acid assay

Row | SMILES | IC50 (HeLa) [µg/mL] | IC50 (KB) [µg/mL] | IC50 (COLO 205) [µg/mL] | IC50 (HEp-2) [µg/mL] | K ass (Nucleic Acid) [M⁻¹]
1 | CN(C)CCSc1nccc(-c2cccs2)n1 | > 50 | > 50 | > 50 | > 50 | 
2 | CN(C)CCSc1nccc(-c2ccc(-c3cccs3)s2)n1 | 25 (≈ 71.9 µM) | 50 (≈ 144 µM) | 30 (≈ 86.3 µM) | 50 (≈ 144 µM) | 6.5e+06
3 | CN(C)CCOc1nccc(-c2ccc(-c3cccs3)s2)n1 | 15 (≈ 45.3 µM) | 17 (≈ 51.3 µM) | 12 (≈ 36.2 µM) | 16 (≈ 48.3 µM) | 2.1e+07
4 | CN(C)CCCOc1nccc(-c2ccc(-c3cccs3)s2)n1 | 7 (≈ 20.3 µM) | 5 (≈ 14.5 µM) | 7 (≈ 20.3 µM) | 11 (≈ 31.8 µM) | 3e+07
5 | CN(C)CCOc1nccc(-c2cccs2)n1 | > 50 | > 50 | > 50 | > 50 | 
6 | CN(C)CCCOc1nccc(-c2cccs2)n1 | > 50 | > 50 | > 50 | > 50 | 

— ChEMBL document CHEMBL1131975, “Synthesis and antitumor activity of bithienyl-pyrimidine derivatives with electrostatic binding side chains” (Bioorg Med Chem Lett, 1999)
